Experimental data reported in US20090069301A1, “Acridine and Quinoline Derivatives as Sirtuin Modulators” (Sirtris Pharmaceuticals, Inc., priority 2005, published 2009).

The compounds below were run against T1, SIRT1 (Homo sapiens, UniProt Q96EB6) (assay: Fluorescence polarization or mass spectrometry based assay to identify modulators of SIRT1 activity (p53-based peptide deacetylation)). Conditions: activation of SIRT1, Table 4; read-out: ED50 (the source's name).
T1 sequence (Q96EB6 1-747): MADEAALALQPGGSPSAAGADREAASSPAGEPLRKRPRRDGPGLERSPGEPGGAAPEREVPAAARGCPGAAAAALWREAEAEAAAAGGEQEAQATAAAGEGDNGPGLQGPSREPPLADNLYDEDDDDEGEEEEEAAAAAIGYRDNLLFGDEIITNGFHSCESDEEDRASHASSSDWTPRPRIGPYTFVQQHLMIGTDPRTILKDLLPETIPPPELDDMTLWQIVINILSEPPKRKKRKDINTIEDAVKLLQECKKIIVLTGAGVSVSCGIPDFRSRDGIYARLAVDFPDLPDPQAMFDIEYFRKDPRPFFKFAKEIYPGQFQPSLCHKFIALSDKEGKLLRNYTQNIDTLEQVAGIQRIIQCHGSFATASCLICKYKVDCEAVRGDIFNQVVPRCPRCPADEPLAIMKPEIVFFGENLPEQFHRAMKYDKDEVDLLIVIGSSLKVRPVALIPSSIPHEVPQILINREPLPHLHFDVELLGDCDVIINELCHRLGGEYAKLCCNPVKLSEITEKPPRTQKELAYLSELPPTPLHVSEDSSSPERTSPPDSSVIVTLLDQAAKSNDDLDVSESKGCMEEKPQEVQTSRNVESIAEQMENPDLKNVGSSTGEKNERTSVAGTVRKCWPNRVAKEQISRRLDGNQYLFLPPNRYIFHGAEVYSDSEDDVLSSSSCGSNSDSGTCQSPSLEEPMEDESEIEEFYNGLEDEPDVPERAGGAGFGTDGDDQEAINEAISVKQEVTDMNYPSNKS
Assay type: biochemical
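Further: recombinant His-tagged human SIRT1 deacetylating p53-derived acetylated peptide, detected by fluorescence polarization after trypsin cleavage, signal inversely tracking deacetylase activity, compared against activity without test compound.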

Structure (SMILES)	EC50 [µM]
CN(C)c1ccc(C(=O)NNc2cc(-c3ccccc3)nc3ccccc23)cc1 [Compound 25]	> 150
Cc1ccc2nc(-c3ccccc3)cc(C(=O)NCCCN3CCCCC3)c2c1 [Compound 44]	> 150
Cc1ccc2nc(-c3cccs3)ccc2c1C(=O)NCCCN1CCCCC1 [Compound 21]	> 150
Cc1ccc2nc(-c3ccco3)cc(C(=O)N(C)CCN(C)C)c2c1 [Compound 32]	> 150
Cc1ccc2nc(-c3ccco3)ccc2c1C(=O)NCCCN1CCCCC1 [Compound 20]	> 150
COc1cc(NC(=O)c2cc(-c3ccccc3)nc3ccccc23)cc(OC)c1OC [Compound 27]	> 150
O=C(NNC(=O)c1c2ccccc2nc2ccccc12)c1cc(F)cc(F)c1 [Compound 134]	> 150
O=C(Nc1ccc(N2CCCCC2)cc1)c1c2ccccc2nc2ccccc12 [Compound 128]	> 150
O=C(Nc1c2c(nc3ccccc13)CCCC2)c1ccncc1 [Compound 157]	> 150
Cc1ccc2nc(-c3cccs3)cc(C(=O)N(C)CCN(C)C)c2c1 [Compound 51]	> 150
Cc1ccc2nc(-c3ccco3)cc(C(=O)NCCCN3CCOCC3)c2c1 [Compound 31]	> 150
CCCCc1ccc(NC(=O)c2c3c(nc4ccccc24)CCCC3)cc1 [Compound 160]	> 150
CC(C)c1cc(NCc2c3ccccc3nc3ccccc23)n(-c2ccccc2)n1 [Compound 125]	> 150
CS(=O)(=O)c1ccc(F)c(NC(=O)c2c3ccccc3nc3ccccc23)c1 [Compound 135]	> 150
Cc1ccc2nc(-c3cccs3)cc(C(=O)N3CCCN(C)CC3)c2c1 [Compound 50]	> 150
Cc1ccc2nc(-c3ccco3)cc(C(=O)NCCN(C)CCN(C)C)c2c1 [Compound 46]	> 150
Cc1ccc2nc(-c3cccs3)cc(C(=O)NCCCN3CCN(C)CC3)c2c1 [Compound 18]	> 150
Cc1ccc2nc(-c3ccco3)cc(C(=O)N3CCCCC3)c2c1 [Compound 30]	> 150
Cc1ccc2nc(-c3cccs3)cc(C(=O)NCCCN3CCOCC3)c2c1 [Compound 53]	> 150
O=C(Nc1ccccc1-n1cccc1)c1c2ccccc2nc2ccccc12 [Compound 129]	> 150
Cc1ccc2nc(-c3ccccc3)cc(C(=O)NCCCN3CCN(C)CC3)c2c1 [Compound 45]	> 150
O=C(NNc1c2ccccc2nc2ccccc12)c1cccnc1 [Compound 11]	< 50
Cc1ccc2nc(-c3cccs3)cc(C(=O)N3CCN(C)CC3)c2c1 [Compound 49]	> 150
O=C(NCc1ccncc1)c1cc(-c2ccsc2)nc2ccccc12 [Compound 1]	< 50
Cc1ccc2nc(-c3ccco3)cc(C(=O)NCCCCN3CCN(C)CC3)c2c1 [Compound 17]	> 150
O=C(Nc1ccc2c(c1)OCO2)Nc1c2ccccc2nc2ccccc12 [Compound 153]	> 150

Structure (SMILES)	EC50 [µM]
c1ccc(NNc2c3ccccc3nc3ccccc23)nc1 [Compound 121]	< 50
CCN(CC)S(=O)(=O)c1ccc(N2CCOCC2)c(NC(=O)c2cc(-c3ccccn3)nc3ccccc23)c1 [Compound 9]	> 150
Cc1ccc2nc(-c3cccs3)cc(C(=O)NCCN3CCCCC3)c2c1 [Compound 52]	> 150
O=C(NNc1cc(-c2ccccc2)nc2ccccc12)c1ccc(Cl)cc1 [Compound 23]	< 50
Cc1ccc2nc(-c3ccco3)cc(C(=O)NCCN3CCCCC3)c2c1 [Compound 34]	> 150
CN(NC(=O)c1ccncc1)c1c2ccccc2nc2ccccc12 [Compound 155]	< 50
COc1ccccc1N1CCN(C(=O)c2c3ccccc3nc3ccccc23)CC1 [Compound 136]	> 150
COc1cc(C(=O)NN(C)c2c3ccccc3nc3ccccc23)cc(OC)c1OC [Compound 154]	> 150
Cc1ccc2nc(-c3cccs3)cc(C(=O)NCCN3CCOCC3)c2c1 [Compound 6]	< 50
COc1cc(C(=O)NNc2c3ccccc3nc3ccccc23)cc(OC)c1OC [Compound 3]	< 50
COc1cc(C(=O)NNc2cc(-c3ccccc3)nc3ccccc23)cc(OC)c1OC [Compound 24]	> 150
Cc1ccc2nc(-c3ccco3)cc(C(=O)N3CCN(C)CC3)c2c1 [Compound 33]	> 150
COc1cc(-c2nnc(-c3c4ccccc4nc4ccccc34)o2)cc(OC)c1OC [Compound 137]	< 50
Cc1ccc(-c2cccc(NC(=O)c3c4ccccc4nc4ccccc34)c2)cc1C [Compound 130]	> 150
COc1cc(NCc2c3ccccc3nc3ccccc23)cc(OC)c1OC [Compound 127]	> 150
Cc1ccc2nc(-c3ccco3)cc(C(=O)N3CCOCC3)c2c1 [Compound 35]	> 150
O=C(NNc1cc(-c2ccccc2)nc2ccccc12)c1ccccn1 [Compound 22]	< 50
COc1cc(C(=O)NNc2c3c(nc4ccccc24)CCCC3)cc(OC)c1OC [Compound 120]	< 50
COc1ccc(C(=O)NNc2cc(-c3ccccc3)nc3ccccc23)cc1OC [Compound 26]	< 50
CCCOc1cccc(-c2cc(C(=O)NCCN3CCOCC3)c3ccccc3n2)c1 [Compound 4]	> 150
CC(C)c1cc(Nc2c3ccccc3nc3ccccc23)n(-c2ccccc2)n1 [Compound 131]	> 150
Cc1ccc2nc(-c3ccco3)cc(C(=O)NCCCN3CCN(C)CC3)c2c1 [Compound 47]	> 150
c1ccc2c(c1)Oc1ccccc1C2n1nnc2ccccc21 [Compound 124]	> 150
O=C(NNc1c2ccccc2nc2ccccc12)c1ccncc1 [Compound 10]	< 50
CC(C)c1cc(NC(=O)c2c3ccccc3nc3ccccc23)n(-c2ccccc2)n1 [Compound 118]	< 50
Cc1ccc2nc(-c3cccs3)cc(C(=O)N3CCCCC3)c2c1 [Compound 48]	> 150

Same assay, conditions: inhibition of SIRT1, Table 5

Structure (SMILES)	IC50 [µM]
Cc1ccc2nc(-c3ccccc3)cc(C(=O)NCCCCCN3CCOCC3)c2c1 [Compound 170]	> 150
Cc1ccc2nc(-c3ccccc3)cc(C(=O)NCCCN3CCOCC3)c2c1 [Compound 169]	> 150
Cc1ccc2nc(-c3cccs3)cc(C(=O)N3CCOCC3)c2c1 [Compound 172]	> 150
Cc1ccc2nc(-c3ccccc3)cc(C(=O)NCCCCCN3CCCCC3)c2c1 [Compound 171]	> 150
